US20160237158A1, “Methods and Compositions for Targeting Tumor Microenvironment and for preventing Metastasis” (INSTITUT NATIONAL DE LA SANTÉ ET DA LA RECHERCHE MÉDICALE …, priority 2013, published 2016)

Assays:
[1] = system: STAT3; assay: STAT3 phosphorylation in fibroblasts (western blot); format: cell-based, human
Excerpt: For western blot analysis, antibodies against STAT3 (#9134), pY705-STAT3 (#9145), SMAD2 (#3122), pSer465/467-SMAD2 (#3108), pY1022/1023-JAK1 (#3331), MLC2 (#3672), pThr18/19-MLC2 (#3674) were purchased from Cell Signaling (Cell Signaling Technology, Beverly Mass.), α-tubulin from sigma (T4026, Sigma, Saint Louis, Mo.); JAK1 from Biolegend (#604402, Biolegend, San Diego, Calif.), GP-130 (#sc-655) and RhoA (#sc-418, Santa Cruz Biotechnology, Santa Cruz, Calif.), and alpha-smooth muscle actin (α-SMA) from Abcam (#Ab5694, Abcam, Cambridge, Mass.). For immunofluorescence staining, antibodies against α-SMA and fibronectin were purchased from Sigma (#A2547 and F3648 respectively, Sigma, Saint Louis, Mo.). Chemical inhibitors used: Pyridone 6 (#42009, Calbiochem, Los Angeles, Calif.) was used at […], SB431542 (#1614, Tocris bioscience, Ellisville, Mo.) at 10 μM, Y27632 (#1254, Tocris bioscience, Ellisville, Mo.) and Actinomycin D (#856258, Sigma, Saint Louis, USA) at 5 μg/ml.
For immunoblotting analysis, cells were lysed on ice in lysis buffer (25 mM Tris (pH 6.8), 2% Sodium dodecyl sulfate (SDS), 5% glycerol, 1% beta-mercaptoethanol, 0.01% bromophenol blue). Equal amounts of protein from each sample were loaded on sodium dodecyl sulfate-polyacrylamide gel electrophoresis, separated, and transferred onto nitrocellulose. The immunoblots were blocked by incubation in 5% bovine serum albumin, 10 mM Tris-HCl (ph7.5), 500 mM NaCl, 0.1% Tween 20 for 30 min at room temperature, probed with specific antibodies and then with secondary antibodies using common classical methods. Immunodetection was performed using chemiluminescent HRP subtrate (#WBKLS0500, Millipore, Billerica, Mass.).

[2] = system: 410.4 cells; assay: Orthotopic tumours in BALB/c mice; format: in vivo, mouse; conditions: 21-day oral gavage, 30 mg/kg/day
Protocol: After embedding in paraffin, tissue sections from organotypic culture, skin from human breast and foreskin, and human skin carcinomas were prepared on slides using standard methods. Collagen assembly was evaluated by Sirius Red staining. Briefly, sections were first incubated with Weigert's iron hematoxylin (#C0231, Diapath, Martinengo, Italy) for 8 minutes and washed in distilled water for 10 minutes. Sections were next incubated with 1% Sirius Red in saturated picric acid for 1 hour. The slides were then washed twice with 0.5% acetic acid in distilled H2O, dehydrated and mounted using classical procedures. Sections were analysed using polarized light imaging and confocal laser microscopy with a LSM 5 EXCITER confocal microscope (Carl Zeiss, Germany). Collagen fibres thickness and length were quantified using ImageJ software.
6-8 weeks old female BALB/c mice were anesthetized using ketamine and xelazine by peritoneal injection. Skin was incised and 5.10^3 67NR or 410.4 cells (5.10^3) were injected into the right and left 4th mammary fat pad in 10 μl of PBS for each mouse. 67NR group consisted of 2 mice (4 primary tumours), 410.^4 group consisted of 7 mice (14 tumours) and 410.4 with additional treatment of Ruxolitinib (30 mg/kg/day) group consisted of 5 mice (10 tumours). Mice were sacrificed 30 days post-injection and Ruxolitinib treatment started 7 days after injection, primary tumours were removed and fixed in PBS containing 3.7% formalin for 8 hours, followed by was with PBS and transfer to 70% ethanol, and then embedded in paraffin, sectioned and stained with haematoxylin and eosin. Immunohistochemistry detection using anti-LIF, anti-p-STAT3 and anti-alpha-SMA antibodies was performed on paraffin sections following manufactures instructions.

[3] = mice implanted with 401.4 cells

Compound: N#CCC(C1CCCC1)n1cc(-c2ncnc3[nH]ccc23)cn1 (stereo not shown) [Ruxolitinib, 3-Cyclopentyl-3-[4-(7H-pyrrolo[2,3-d]pyrimidin-4-yl)-1H-pyrazol-1-yl]propanenitrile]
- STAT3 phosphorylation ([1]; TGFβ1- or LIF-stimulated fibroblasts): repressing
- CAF endogenous STAT3 activity ([1]; hCAF): inhibition
- STAT3 phosphorylation within the tumour microenvironment in vivo [2, 3]: inhibited
- αSMA staining [2, 3]: without influencing
- rates of invasion of the tumour cells ([2]; mice implanted with 401.4 cells, FIG. 4B): significant reduced
- Sirius Red staining and formation of collagen bundles ([2]; mice implanted with 401.4 cells, FIG. 4C): reduced
- LIF production ([2]; mice implanted with 410.4 cells): without influencing
